# Results taken from ChEMBL document CHEMBL2046320, “Bisubstrate analog inhibitors of 6-hydroxymethyl-7,8-dihydropterin pyrophosphokinase: new lead exhibits a distinct binding mode” (Bioorg Med Chem, 2012).
# Experiments:
# [1] = molecular target: T1, 2-amino-4-hydroxy-6-hydroxymethyldihydropteridine pyrophosphokinase (Escherichia coli (strain K12), UniProt P26281); assay: Inhibition of Escherichia coli HPPK using [alpha-33P]ATP after 30 mins
# T1 sequence (P26281 whole entry): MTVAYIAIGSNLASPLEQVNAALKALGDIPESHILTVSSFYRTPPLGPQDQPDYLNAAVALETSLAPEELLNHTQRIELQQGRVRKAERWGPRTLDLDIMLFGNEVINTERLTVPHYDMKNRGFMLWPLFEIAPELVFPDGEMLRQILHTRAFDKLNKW
# [2] = molecular target: T1, 2-amino-4-hydroxy-6-hydroxymethyldihydropteridine pyrophosphokinase; assay: Binding affinity to Escherichia coli HPPK at pH 8.3 by fluorometric titration
smiles,measurement,setting,value
CC1(C)Nc2nc(N)[nH]c(=O)c2N=C1C(=O)NCC(=O)NCCS(=O)(=O)C[C@H]1O[C@@H](n2cnc3c(N)ncnc32)[C@H](O)[C@@H]1O,IC50,[1],9.53 µM
same,Kd,[2],4.16 µM
